Marks after values point to notes of the source that are not given here. Peptide text beside a SMILES is read from it.
Legend:
[1] = target: T1, angiotensin converting enzyme (ACE) (Homo sapiens, UniProt P12821); assay: Peptidase selectivity: quenched fluorescent substrate hydrolysis by ACE; assay type: biochemical; settings: for inhibition at 300 µM: 300 μM compound, read-out: inhibited activity of ACE by
T1 construct: purchased R & D systems 929-ZN

neprilysin (NEP) = target: T2, neprilysin (NEP) (Homo sapiens, UniProt P08473); assay: Peptidase selectivity: quenched fluorescent substrate hydrolysis by NEP; assay type: biochemical; settings: 300 μM compound; read-out: inhibited activity of NEP by
T2 construct: purchased R & D systems 1182-ZNC

[2] = target: T3, human recombinant neurolysin (Homo sapiens, UniProt Q9BYT8); assay: Enzymatic assay: QFS hydrolysis by human recombinant neurolysin; assay type: biochemical
T3 construct: purchased R & D systems 3814-ZN
Protocol: Enzymatic assays—activity of neurolysin was measured in a continuous assay by documenting the increase in fluorescence occurring upon cleavage of a quenched fluorescent substrate (QFS) Mca-Pro-Leu-Gly-Pro-D-Lys(DNP)-OH (Bachem) (25,36). […] All assays were initiated by addition of QFS (100 μl assay volume in 96-well plates), and each experimental sample was present in duplicate.
Screening of test compounds—primary screening of top-ranked 40 compounds (received from NCI DTP) was carried out at 10 and 100 μM final assay concentrations. […] In all experiments, test compounds were incubated with neurolysin for 10 min at 37° C. before addition of the substrate to start the reaction. […]

[3] = target: T4, angiotensin converting enzyme 2 (ACE2) (Homo sapiens, UniProt Q9BYF1); assay: Peptidase selectivity: quenched fluorescent substrate hydrolysis by ACE2; assay type: biochemical; settings: for inhibition at 300 µM: 300 μM compound, read-out: inhibited activity of ACE2 by
T4 construct: purchased R & D systems 933-ZN

mouse brain neurolysin = target: T5, mouse brain neurolysin (Mus musculus, UniProt Q91YP2); assay: Enzymatic assay: QFS hydrolysis by mouse brain-purified neurolysin; assay type: biochemical
T5 construct: P10 mouse forebrains were used for purification of native neurolysin; from tissue; host or cells: P10 mouse forebrain, soluble fraction, size-exclusion fraction
Protocol: In brief, forebrains were homogenized in hypotonic buffer (20 mM NaPO4, pH 7.2) followed by gentle sonication and centrifugation (30 min at 48,000×g at 4° C.). The resulting supernatant was filtered through a 100 kDa cut-off centrifugal filtering unit and concentrated in a 30 kDa cut-off centrifugal filtering unit (Amicon Ultra; Millipore). Neurolysin was semi-purified from the concentrate by size exclusion chromatography using a Superdex 200 Increase 10/300 GL column (GE Healthcare) in AKTA Purifier FPLC system (GE Healthcare). Elution of neurolysin was tracked by the enzymatic assay described below, and the fraction with the highest neurolysin activity was directly used for the experiments.
Enzymatic assays—activity of neurolysin was measured in a continuous assay by documenting the increase in fluorescence occurring upon cleavage of a quenched fluorescent substrate (QFS) Mca-Pro-Leu-Gly-Pro-D-Lys(DNP)-OH (Bachem) (25,36). […]
Statistical Analyses—statistical analyses and curve fitting were conducted with GraphPad Prism 6.0 software. For each enzymatic reaction, slope of the line which represents the initial velocity (Vo) for the reaction progress curve was calculated using the liner regression model of the software (Vo=Slope=Δ fluorescent intensity of the reaction product/Δ time). […]

[4] = target: T6, rat recombinant neurolysin (Rattus norvegicus, UniProt P42676); assay: Enzymatic assay: QFS hydrolysis by rat recombinant neurolysin; assay type: biochemical; settings: for Km value decreased by / Vmax increased by: 40 μM modulator; for Vmax: QFS hydrolysis; for activity at 10 µM: read-out: % activity at 10; for activity at 100 µM: read-out: % activity at (100); for % activity at 10: 10 μM compound; for % activity at 10 / % activity at (100): compared to vehicle control; for % activity at (100): 100 μM compound
T6 construct: polyhistidine (N); made in house; host or cells: Escherichia coli (pBAD/His vector)
Protocol: Rat recombinant neurolysin—N-terminal polyhistidine tagged recombinant rat neurolysin was produced in Escherichia coli using a plasmid construct in pBAD/His vector system (Invitrogen) kindly provided by Dr. David W. Rodgers (University of Kentucky) (32,33). Bacterial culture was carried out in Terrific Broth in 2 L Erlenmeyer flasks using an incubator shaker (1-2400, New Brunswick Scientific). Expression was induced by addition of arabinose (1 mM final concentration), the cells were pelleted 3 h after induction and stored at −80° C. freezer. Bacterial pellets were resuspended and lysed in phosphate buffer (20 mM NaH2PO4, 500 mM NaCl, 0.05% Tween-20, pH 8.0) containing 0.25 mg/ml lysozyme, 1 mM phenylmethylsulfonyl fluoride, 0.05 mg/ml DNAse and 0.02 mg/ml RNase, followed by brief sonication. After centrifugation (40,000×g, 20 min at 4° C.) the supernatant was applied to a Ni-NTA Superflow cartridge (Qiagen), followed by washing and elution of recombinant neurolysin with phosphate buffer containing 25 and 250 mM imidazole, respectively. The eluted protein was further purified by size exclusion chromatography using a TSK gel BioAssist G2SWxl column (Tosoh bioscience) in AKTA Purifier FPLC system (GE Healthcare). […] Specific activity of recombinant neurolysin was determined by an enzymatic assay described below.
All assays were initiated by addition of QFS (100 μl assay volume in 96-well plates), and each experimental sample was present in duplicate.
In all experiments, test compounds were incubated with neurolysin for 10 min at 37° C. before addition of the substrate to start the reaction. All test compounds were dissolved in DMSO at 10 to 50 mM stock concentrations.
Statistical Analyses—statistical analyses and curve fitting were conducted with GraphPad Prism 6.0 software. For each enzymatic reaction, slope of the line which represents the initial velocity (Vo) for the reaction progress curve was calculated using the liner regression model of the software (Vo=Slope=Δ fluorescent intensity of the reaction product/Δ time). EC50 values for the modulators were calculated by fitting initial velocity values for hydrolysis of QFS by neurolysin in the presence of varying concentrations of a modulator into a nonlinear regression model for the three-parameter log(stimulator) vs. response equation [Y=Bottom+(Top−Bottom)/(1+10^((Log EC50−X)))].

[5] = target: thimet oligopeptidase (TOP) (Homo sapiens, UniProt P52888); assay: Peptidase selectivity: quenched fluorescent substrate hydrolysis by TOP; settings: for inhibition at 300 µM: read-out: inhibited activity of TOP by
Protocol: Activity of recombinant human TOP was assessed in the same way as for neurolysin, except that the assay was carried out in the presence of 0.1 mM dithiothreitol (37).

in vitro = settings: mouse, plasma
[6] = Plasma and brain protein binding, rapid equilibrium dialysis (RED); assay type: in vitro ADME, mouse; settings: mouse plasma; 500 ng/mL
Protocol: Plasma and Brain Protein Binding: The rapid equilibrium dialysis (RED) plate and single-use inserts with a membrane MWCO of 8 kDa and sealing tapes for 96-well plates were purchased from (Pierce Biotechnology, Thermo Fisher Scientific, Waltham, Mass.). Test compounds were dissolved in dimethyl sulfoxide and then diluted to 10 μg/mL with water for binding studies. The stock solutions (10 μg/mL) were added to mouse brain homogenates or plasma. The final concentration of the compounds for the equilibrium dialysis experiment was 500 ng/mL. The RED device was assembled according to the manufacturer's instructions. A 200 μL aliquot of plasma or brain homogenate spiked with 500 ng/mL of selected compound was added to the sample chamber of insert (donor) and 400 μL of DPBS was added to the buffer chamber of the dialysis membrane (receiver). Then, the base plate was covered with a sealing tape and was incubated at 37° C. on an orbital shaker at 250 rpm for 4 hours to achieve equilibrium. Compounds were evaluated in triplicate for each experiment. At the end of incubation, equal volumes from both donor and receiver chambers were taken and placed in separate microcentrifuge for content analysis using LC-MS/MS.

[7] = test system: co-culture of primary mouse astrocytes and immortalized mouse endothelial cells (bEnd3); assay: In vitro BBB permeability, apical to basolateral transport; assay type: in vitro ADME; settings: 10 μg/mL, 37° C.
Protocol: The permeability coefficient (Pe) was calculated from the cleared volume of each compound versus time. Values represent the mean±SD of three measurements.
Mouse primary astrocytes were isolated from the cerebral cortices of one day old pups (CD-1 mice, Charles Rivers Laboratory) following a literature method.^36 After extracting the brain, cortices were separated, minced and placed in Hank's balanced salt solution (HBSS) without calcium and magnesium, supplemented with gentamycin (10 μg/m). […] The cell suspensions were seeded into a T75 flask and the medium was changed every 3 days for 10-14 days or until reaching confluency.
For bEnd3 and astrocyte co-culture, the Transwell filters ([…] pore size, 12-well; Corning, Lowell, Mass.) were used. First, the Transwell filter was inverted and astrocytes at a density of 150,000 cells/filter were seeded onto the abluminal side of the filter and allowed to adhere for 4 hours. Then the Transwell filter was inverted back and the cells were grown for 2 days in astrocyte medium. At the end of 48 hours, bEnd3 cells at a density of 50,000 cells/filter were seeded onto the upper/luminal side of the filter and the co-culture of astrocytes and bEnd3 cells were grown for an additional 8 days. The medium for both compartments were changed every other day according to literature proceedures.^37
The apparent permeability coefficient (Pe, in cm/min) was calculated according to the cleared volume of each time point, as previously described.^38,39
Permeability measurement for each compound was run for 120 minutes. The media was removed and transwells were rinsed and incubated with HBSS buffer at 37° C. for 30 minutes. […] Concentration of compounds was determined by LC-MS/MS. Since the blank Transwell insert itself (without cells) provides resistance to the passage of buffer and compound from the donor to receiver chamber, the permeability of each compound was also measured in a blank insert and the final permeability coefficient results were calculated by considering the permeability of each compound in a blank insert.

Neurolysin (Nln) = target: T7, Neurolysin (Nln) (Rattus norvegicus, UniProt P42676); assay: Nln activation in isolated enzyme assay (A50, Amax); assay type: biochemical; settings: 95% CI in parentheses; for Amax (maximum % activation achieved): 100% = normal enzyme turnover
T7 construct: polyhistidine (N); made in house; host or cells: Escherichia coli (pBAD/His vector), if the rat enzyme of b61 was used

[8] = QFS 15 μM, absence of dynorphin A (1-13)
[9] = QFS 15 μM, presence of dynorphin A (1-13) 1 μM
[10] = QFS 25 μM, neurolysin 0.3 nM, 100% = no compound
[11] = concentration-response up to 300 μM

T1 sequence (P12821 30-1306): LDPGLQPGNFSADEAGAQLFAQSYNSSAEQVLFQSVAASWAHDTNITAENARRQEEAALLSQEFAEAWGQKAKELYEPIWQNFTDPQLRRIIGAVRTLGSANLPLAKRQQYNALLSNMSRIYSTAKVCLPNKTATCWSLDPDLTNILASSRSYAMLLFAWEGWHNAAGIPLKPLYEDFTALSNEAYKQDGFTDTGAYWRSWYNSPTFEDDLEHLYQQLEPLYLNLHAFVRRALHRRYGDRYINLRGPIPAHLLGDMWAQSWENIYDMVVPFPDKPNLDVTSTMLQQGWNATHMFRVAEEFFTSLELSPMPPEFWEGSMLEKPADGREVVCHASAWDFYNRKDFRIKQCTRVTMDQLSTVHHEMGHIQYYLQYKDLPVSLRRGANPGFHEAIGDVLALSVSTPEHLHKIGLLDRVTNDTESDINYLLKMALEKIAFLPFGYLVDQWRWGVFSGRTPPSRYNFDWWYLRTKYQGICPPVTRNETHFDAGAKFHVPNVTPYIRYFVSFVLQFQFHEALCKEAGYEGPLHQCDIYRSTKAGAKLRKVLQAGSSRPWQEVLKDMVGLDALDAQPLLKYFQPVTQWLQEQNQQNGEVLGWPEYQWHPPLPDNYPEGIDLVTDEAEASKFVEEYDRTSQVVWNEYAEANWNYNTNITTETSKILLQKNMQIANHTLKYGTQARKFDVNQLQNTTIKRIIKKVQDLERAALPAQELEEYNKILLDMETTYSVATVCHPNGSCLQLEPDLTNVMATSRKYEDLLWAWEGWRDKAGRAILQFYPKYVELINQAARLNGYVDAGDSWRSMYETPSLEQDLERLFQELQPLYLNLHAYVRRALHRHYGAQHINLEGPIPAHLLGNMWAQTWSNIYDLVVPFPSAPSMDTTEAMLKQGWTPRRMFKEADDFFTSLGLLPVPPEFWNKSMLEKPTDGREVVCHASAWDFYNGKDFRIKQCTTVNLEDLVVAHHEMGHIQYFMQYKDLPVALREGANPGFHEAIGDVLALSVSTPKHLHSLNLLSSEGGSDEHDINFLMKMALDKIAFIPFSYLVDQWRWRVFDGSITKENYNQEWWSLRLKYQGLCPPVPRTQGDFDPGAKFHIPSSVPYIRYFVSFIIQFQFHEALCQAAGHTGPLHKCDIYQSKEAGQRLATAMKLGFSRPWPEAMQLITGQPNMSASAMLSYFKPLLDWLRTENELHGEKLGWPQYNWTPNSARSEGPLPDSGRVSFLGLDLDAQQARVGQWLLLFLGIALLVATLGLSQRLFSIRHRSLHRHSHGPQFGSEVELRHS
thimet oligopeptidase (TOP), sequence (P52888 whole entry): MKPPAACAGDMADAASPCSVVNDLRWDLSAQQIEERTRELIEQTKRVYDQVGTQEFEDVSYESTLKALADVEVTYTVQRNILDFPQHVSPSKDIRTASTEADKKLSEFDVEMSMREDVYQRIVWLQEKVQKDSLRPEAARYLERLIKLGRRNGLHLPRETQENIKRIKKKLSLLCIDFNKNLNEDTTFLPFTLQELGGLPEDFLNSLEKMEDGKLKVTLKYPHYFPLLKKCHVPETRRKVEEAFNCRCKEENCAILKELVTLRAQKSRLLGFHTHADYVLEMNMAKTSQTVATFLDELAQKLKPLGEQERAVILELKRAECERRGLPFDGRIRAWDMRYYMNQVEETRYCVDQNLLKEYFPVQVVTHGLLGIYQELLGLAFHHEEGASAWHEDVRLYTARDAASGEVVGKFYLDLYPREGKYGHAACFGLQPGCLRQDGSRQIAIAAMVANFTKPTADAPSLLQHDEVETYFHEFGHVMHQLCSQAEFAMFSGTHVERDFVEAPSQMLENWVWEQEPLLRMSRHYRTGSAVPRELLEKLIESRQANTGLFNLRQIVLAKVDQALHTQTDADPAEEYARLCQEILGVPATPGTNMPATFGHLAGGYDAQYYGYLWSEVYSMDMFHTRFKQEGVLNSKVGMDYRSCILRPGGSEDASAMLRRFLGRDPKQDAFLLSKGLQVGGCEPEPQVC
T4 sequence (Q9BYF1 18-805): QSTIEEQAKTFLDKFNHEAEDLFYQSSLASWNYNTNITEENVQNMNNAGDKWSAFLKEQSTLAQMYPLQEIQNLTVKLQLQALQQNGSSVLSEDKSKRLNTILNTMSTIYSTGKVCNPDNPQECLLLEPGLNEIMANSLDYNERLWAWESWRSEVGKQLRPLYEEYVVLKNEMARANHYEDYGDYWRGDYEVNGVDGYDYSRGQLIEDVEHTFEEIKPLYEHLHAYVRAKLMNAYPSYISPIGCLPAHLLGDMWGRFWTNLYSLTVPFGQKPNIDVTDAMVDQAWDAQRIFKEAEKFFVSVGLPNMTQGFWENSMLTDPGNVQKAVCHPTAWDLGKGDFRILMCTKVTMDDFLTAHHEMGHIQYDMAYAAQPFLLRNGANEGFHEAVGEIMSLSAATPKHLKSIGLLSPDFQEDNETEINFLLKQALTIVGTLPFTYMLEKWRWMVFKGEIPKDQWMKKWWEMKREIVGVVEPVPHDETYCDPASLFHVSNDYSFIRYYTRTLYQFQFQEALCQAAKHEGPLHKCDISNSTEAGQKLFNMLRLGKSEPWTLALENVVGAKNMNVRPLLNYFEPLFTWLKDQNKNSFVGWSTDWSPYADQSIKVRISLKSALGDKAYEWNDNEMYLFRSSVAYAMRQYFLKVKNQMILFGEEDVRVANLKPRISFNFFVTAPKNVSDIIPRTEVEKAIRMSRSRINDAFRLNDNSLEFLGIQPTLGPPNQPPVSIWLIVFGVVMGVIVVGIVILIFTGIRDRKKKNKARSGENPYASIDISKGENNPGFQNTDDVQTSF
T7 sequence (P42676 38-704): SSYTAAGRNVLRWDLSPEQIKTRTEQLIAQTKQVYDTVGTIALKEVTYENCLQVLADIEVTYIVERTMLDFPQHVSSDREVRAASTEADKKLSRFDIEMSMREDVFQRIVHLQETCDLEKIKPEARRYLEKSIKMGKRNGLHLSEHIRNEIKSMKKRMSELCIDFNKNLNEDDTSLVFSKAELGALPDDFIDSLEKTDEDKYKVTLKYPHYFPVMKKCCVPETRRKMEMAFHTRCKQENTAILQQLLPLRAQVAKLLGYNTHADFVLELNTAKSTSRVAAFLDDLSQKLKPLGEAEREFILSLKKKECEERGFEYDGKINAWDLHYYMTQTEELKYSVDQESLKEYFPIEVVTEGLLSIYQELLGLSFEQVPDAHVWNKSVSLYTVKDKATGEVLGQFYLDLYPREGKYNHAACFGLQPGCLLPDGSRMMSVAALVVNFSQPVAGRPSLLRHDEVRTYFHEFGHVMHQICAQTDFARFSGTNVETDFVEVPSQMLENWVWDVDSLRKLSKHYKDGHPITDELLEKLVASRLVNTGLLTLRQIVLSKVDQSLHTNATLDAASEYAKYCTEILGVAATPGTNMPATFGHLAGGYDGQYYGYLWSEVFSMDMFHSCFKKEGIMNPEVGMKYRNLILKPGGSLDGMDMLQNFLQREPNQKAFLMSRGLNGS
T6 sequence (P42676 38-704): as above
T3 sequence (Q9BYT8 38-704): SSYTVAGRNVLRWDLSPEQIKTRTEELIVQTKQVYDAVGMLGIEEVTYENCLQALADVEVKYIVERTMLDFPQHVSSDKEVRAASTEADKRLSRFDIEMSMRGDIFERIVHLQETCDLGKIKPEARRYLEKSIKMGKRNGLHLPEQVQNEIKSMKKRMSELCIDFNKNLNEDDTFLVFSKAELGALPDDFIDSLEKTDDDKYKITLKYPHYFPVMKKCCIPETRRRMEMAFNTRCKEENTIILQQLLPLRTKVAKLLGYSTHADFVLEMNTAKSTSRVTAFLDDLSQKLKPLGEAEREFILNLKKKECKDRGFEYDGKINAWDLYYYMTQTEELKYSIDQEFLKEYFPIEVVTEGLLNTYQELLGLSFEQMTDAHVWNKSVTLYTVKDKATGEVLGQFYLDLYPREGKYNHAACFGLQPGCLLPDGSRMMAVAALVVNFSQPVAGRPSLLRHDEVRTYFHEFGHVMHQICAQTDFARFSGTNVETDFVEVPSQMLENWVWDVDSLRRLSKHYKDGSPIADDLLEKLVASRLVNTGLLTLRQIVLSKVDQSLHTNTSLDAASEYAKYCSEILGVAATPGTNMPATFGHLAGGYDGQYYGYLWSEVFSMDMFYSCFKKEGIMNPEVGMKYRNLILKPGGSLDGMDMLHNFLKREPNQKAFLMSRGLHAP

## NC(Cc1c[nH]cn1)C(=O)NC(Cc1c[nH]cn1)C(=O)O (mixture of isomers) [NlnA#2, D,L-histidyl-D,L-histidine]
[1]
  inhibition at 300 µM: 12.2 ± 1.8%
Neprilysin (NEP)
  inhibition at 300 µM: 1.6 ± 2%
[2]
  Emax: 214%
[3]
  inhibition at 300 µM: 10.9 ± 2.9%
Mouse brain neurolysin
  Emax: 258%
[4]
  Km value decreased by: ~42.4%
  Vmax increased by: ~16.5%
  activity at 10 µM: 122%
  activity at 100 µM: 206%
[4]; [8]
  Emax: 255%
[4]; [9]
  Emax: 198%
[4]; [10]
  Emax: 203%
[4]; rNln + 40 μM modulator
  Vmax: 112.5* FLU/ng protein per min
[4]; rNln + 100 μM modulator
  Vmax: 148.2*** FLU/ng protein per min
[5]
  inhibition at 300 µM: 15.6 ± 2.6%

## N[C@@H](Cc1c[nH]cn1)C(=O)N[C@@H](Cc1ccc(O)cc1)C(=O)O [NlnA#1, L-histidyl-L-tyrosine] (H-His-Tyr-OH)
[1]
  inhibition at 300 µM: 22.6 ± 2.5%
Neprilysin (NEP)
  inhibition at 300 µM: 2.9 ± 4.7%
[2]
  Emax: 204%
[3]
  inhibition at 300 µM: 13.4 ± 2.9%
Mouse brain neurolysin
  Emax: 190%
[4]
  Km value decreased by: ~43%
  Vmax increased by: ~29%
  activity at 10 µM: 121%
  activity at 100 µM: 226%
[4]; [8]
  Emax: 292%
[4]; [9]
  Emax: 238%
[4]; [10]
  Emax: 235%
[4]; rNln + 40 μM modulator
  Vmax: 124.2*** FLU/ng protein per min
[4]; rNln + 100 μM modulator
  Vmax: 164.8*** FLU/ng protein per min
[5]
  inhibition at 300 µM: 25.9 ± 0.7%

## N[C@@H](Cc1c[nH]cn1)C(=O)N[C@@H](Cc1c[nH]c2ccccc12)C(=O)O [Compound 4, Histidine-tryptophan]
In vitro
  half-life at 500 ng/mL: > 5 h
[6]
  fu in Plasma: 0.93 ± 0.13

## N[C@@H](Cc1c[nH]cn1)C(=O)Nc1cccc2cccnc12 [Compound 11a, (S)-2-amino-3-(1H-imidazol-4-yl)-N-(quinolin-8-yl)propanamide]
[7]
  permeability coefficient (Pe): 1.14±0.02×10^−3 cm/min
[1]; [11]
  effect on activity of ACE (in words): show inhibition of ACE at high concentration
[3]; [11]
  effect on activity of ACE2 (in words): showed inhibition of ACE2 at high concentrations
Neurolysin (Nln)
  Amax (maximum % activation achieved): 252.4 (231.4 to 274.9) %

## N[C@@H](Cc1c[nH]cn1)C(=O)NCc1ccc2ccccc2c1 [Compound 10a, (S)-2-amino-3-(1H-imidazol-4-yl)-N-(naphthalen-2-ylmethyl)propanamide]
Neurolysin (Nln); read-out: A50 (concentration required to activate Nln by 50%)
  EC50: 4.4 µM
Neurolysin (Nln)
  Amax (maximum % activation achieved): 210.9 (191.7 to 231.9) %
[5]; [11]
  effect on activity of TOP (in words): No appreciable inhibition

## CCC1COc2nc(=O)c(C=NCCCN(C)C)c(N)n21 (centres unmarked) [Compound 608820]
[4]; QFS 25 μM
  % activity at 10: 102%
  % activity at (100): 108%

## COC(=O)CCN1CCN(CCO)CC1C (centres unmarked) [Compound 659264]
[4]; QFS 25 μM
  % activity at 10: 104%
  % activity at (100): 107%

## COCN1CCC2N(COC)CCC3N(COC)CCC1N23 (centres unmarked) [Compound 82001]
[4]; QFS 25 μM
  % activity at 10: 105%
  % activity at (100): 100%

## COc1ccc2c(c1)c(=O)c(C(=O)O)cn2CCCOc1ccc([N+](=O)[O-])cc1 [Compound 211002]
[4]; QFS 25 μM
  % activity at 10: 104%
  % activity at (100): 100%

## CC1(C)SC(C(NC(=O)Cc2ccccc2)C(=O)O)NC1C(=O)O (centres unmarked) [Compound 163084]
[4]; QFS 25 μM
  % activity at 10: 103%
  % activity at (100): 102%

## CC(NCCN1CCCC1)C(O)c1ccc(O)c(O)c1.Cl (centres unmarked) [Compound 48778]
[4]; QFS 25 μM
  % activity at 10: 89%
  % activity at (100): 84%

## CC1(C)CC(=O)C(CC(=O)c2ccccc2)=C(NN=C(N)N)C1 [Compound 282137]
[4]; QFS 25 μM
  % activity at 10: 106%
  % activity at (100): 94%

## O=C(O)C1C2C=CC(O2)C1C(=O)NCCCN1CCOCC1 (centres unmarked) [Compound 47096]
[4]; QFS 25 μM
  % activity at 10: 101%
  % activity at (100): 111%

## CCCCCCN(C)C12CN3CN(CN(C3)C1)C2 [Compound 281707]
[4]; QFS 25 μM
  % activity at 10: 109%
  % activity at (100): 113%

## CN1CCC(O)(c2ccccc2)C(CCC(=O)N2CCCC2)C1.Cl (centres unmarked) [Compound 15180]
[4]; QFS 25 μM
  % activity at 10: 102%
  % activity at (100): 95%

From patent US20210198647A1, “Enhancers of Neurolysin Activity” (Texas Tech University System, priority 2018, published 2021)
